Source: US20190100534A1, “Cephem Compounds with Latent Reactive Groups” (Gladius Pharmaceuticals, Inc., priority 2017, published 2019)

Experiments:
EC (Escherichia coli) = assay: MIC determination; type: cell-based; conditions: 20 μM Apo-Transferrin, 37° C., 18 hours
How it was run: (§1)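 Values come from a visual broth microdilution read: the first transparent well at the lowest drug level defines MIC. Inocula were standardized to 0.5 McFarland units, and the medium was CAMH with 20 μM apo-transferrin. Plates incubated overnight, 18 h, at 37 °C.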

[1] = test system: KOXY (Klebsiella oxytoca); assay: MIC determination; type: cell-based; conditions: CAMH broth, 20 μM Apo-Transferrin, 37° C., 18 hours
How it was run: as §1

[2] = test system: KP (Klebsiella pneumoniae); assay: MIC determination; type: cell-based; conditions: 20 μM Apo-Transferrin, 37° C., 18 hours
How it was run: as §1

[3] = test system: A. baumannii (JMI OXA-58); assay: MIC determination; type: cell-based, Acinetobacter baumannii; conditions: class D carbapenemase producer, CAMH broth, 20 μM Apo-Transferrin, 37° C., 18 hours
Description: (§2) Sterile technique was used throughout these experiments. Suspensions of organisms were removed from storage (−80° C.) and partially thawed. Partially thawed organisms (1 μL) were inoculated into 3 mL sterile LB Broth in a sterile culture tube and capped, then cultured at 37° C. with shaking for 4-5 hours until the optical density at 600 nm (OD600) was greater than 0.1 on a single beam spectrophotometer.
(§3) The concentration of organisms was adjusted to 0.08-0.1 OD600 (0.5 McFarland units) by dilution with sterile cation-adjusted Meuller-Hinton (CAMH) broth. The suspensions were used within 30 minutes of preparation.
(§4) A stock solution was made of each test compound by measuring 6.4 mg of the compound on an analytical balance and dissolving it in DMSO (1 mL) to get a transparent solution. The solutions were stored at −20° C. and thawed prior to use.
(§5) Sterile CAMH broth (200 μL) containing 20 μM Apo-Transferrin was pipetted into the first row of 8 columns of a sterile, round-bottomed, transparent, 96-well microplate using an 8-channel pipette equipped with sterile tips. One hundred μL was pipetted into the wells of the remaining 11 rows.
(§6) With an 8-channel pipette equipped with sterile tips, 100 μL of the first row solution was transferred to the second row and mixed. The process was repeated for the second to third rows and continued through row 11. One hundred μL from row 11 was removed and discarded so that all 12 rows contained 100 μL. Row 12 contained no compound and rows 1-11 contained 64, 32, 16, 8, 4, 2, 1, 0.5, 0.25, 0.125, […] of a given compound.
(§7) Inoculant suspensions (0.5 μL) were added to the 12 wells of each column. The plates were then covered and incubated at 37° C. overnight for 18 hours.
(§8) For each organism the MIC was determined by identifying the transparent well with the lowest test compound concentration.

A. baumannii = assay: MIC determination; type: cell-based, Acinetobacter baumannii
Description: as §2, §3, §4, §5, §6, §7, §8

KP (ATCC KPC-3) = assay: MIC determination; type: cell-based, Klebsiella pneumoniae; conditions: CAMH broth, 20 μM Apo-Transferrin, 37° C., 18 hours
Description: as §2, §3, §4, §5, §6, §7, §8

KP (GJ 5659 TEM-26) = assay: MIC determination; type: cell-based, Klebsiella pneumoniae; conditions: CAMH broth, 20 μM Apo-Transferrin, 37° C., 18 hours
Description: as §2, §3, §4, §5, §6, §7, §8

KP (RR -1) = assay: MIC determination; type: cell-based, Klebsiella pneumoniae; conditions: CAMH broth, 20 μM Apo-Transferrin, 37° C., 18 hours
Description: as §2, §3, §4, §5, §6, §7, §8

KP (URMC-1) = assay: MIC determination; type: cell-based, Klebsiella pneumoniae; conditions: CAMH broth, 20 μM Apo-Transferrin, 37° C., 18 hours
Description: as §2, §3, §4, §5, §6, §7, §8

KP (URMC-2) = assay: MIC determination; type: cell-based, Klebsiella pneumoniae; conditions: CAMH broth, 20 μM Apo-Transferrin, 37° C., 18 hours
Description: as §2, §3, §4, §5, §6, §7, §8

KP (URMC-3) = assay: MIC determination; type: cell-based, Klebsiella pneumoniae; conditions: CAMH broth, 20 μM Apo-Transferrin, 37° C., 18 hours
Description: as §2, §3, §4, §5, §6, §7, §8

KP(GJ 5934 TEM-26) = assay: MIC determination; type: cell-based, Klebsiella pneumoniae; conditions: CAMH broth, 20 μM Apo-Transferrin, 37° C., 18 hours
Description: as §2, §3, §4, §5, §6, §7, §8

KP(JMI KPC-2) = assay: MIC determination; type: cell-based, Klebsiella pneumoniae; conditions: CAMH broth, 20 μM Apo-Transferrin, 37° C., 18 hours
Description: as §2, §3, §4, §5, §6, §7, §8

KP(ATCC TEM-10/TEM-12) = type: cell-based, Klebsiella pneumoniae; conditions: CAMH broth, 20 μM Apo-Transferrin, 37° C., 18 hours
Description: as §2, §3, §4, §5, §6, §7, §8

EA (URMC -3) = assay: MIC determination; type: cell-based; conditions: CAMH broth, 20 μM Apo-Transferrin, 37° C., 18 hours
Description: as §2, §3, §4, §5
To each well of the first row was pipetted 2.0 μL of the 6.4 mg/mL stock test compound stock solution to give 1:100 dilutions and a final concentration of 64 μg/mL and mixed.
as §6, §7, §8

E. coli J53 Alone = assay: MIC determination, isogenic E. coli strains; type: cell-based; conditions: for Mimimum Inhibitory Concentrations, J53 Alone: CAMH broth, 20 μM Apo-Transferrin, 37° C., 18 hours
How it was run: (§9)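 Broth microdilution in cation-adjusted Mueller-Hinton broth with 20 μM apo-transferrin, 2-fold compound series from 64 μg/mL. E. coli J53, alone or transformed with a pBC-SK(+) plasmid carrying the beta-lactamase gene (e.g. DHA-1), inoculated from 0.5 McFarland suspension; 18 h at 37° C; MIC = lowest concentration with clear well.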

[4] = test system: Isogenic E. coli J58 strain carrying DHA-1; assay: MIC determination, isogenic E. coli strains; type: cell-based; conditions: isogenic E. coli strain, DHA-1; CAMH broth, 20 μM Apo-Transferrin, 37° C., 18 hours
How it was run: as §9

[5] = test system: Isogenic E. coli J58 strain carrying TEM-26; assay: MIC determination, isogenic E. coli strains; type: cell-based
How it was run: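 Broth microdilution in cation-adjusted Mueller-Hinton broth with 20 μM apo-transferrin, compound […] in twofold steps, inoculum from 0.5 McFarland suspension. E. coli J53 transformed with pBC-SK(+) encoding TEM-26; 18 h at 37° C, MIC as lowest concentration giving a clear well.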

[6] = test system: Isogenic E. coli J58 strain carrying CTX-M-14; assay: MIC determination, isogenic E. coli strains; type: cell-based
How it was run: (§10)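 Isogenic E. coli J53 carrying plasmid-encoded CTX-M-14 or CTX-M-15 (ampicillin-selected), standardized to 0.08-0.1 OD600, incubated overnight (18 h, 37° C.) in CAMH broth plus 20 μM apo-transferrin over 2-fold compound dilutions starting at 64 μg/mL. Lowest concentration with no visible growth recorded as MIC.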

[7] = test system: Isogenic E. coli J58 strain carrying CTX-M-15; assay: MIC determination, isogenic E. coli strains; type: cell-based
How it was run: as §10

[8] = test system: Isogenic E. coli J58 strain carrying IMP-1; assay: MIC determination, isogenic E. coli strains; type: cell-based
How it was run: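 Broth microdilution in cation-adjusted Mueller-Hinton broth with 20 μM apo-transferrin, compound serially diluted two-fold from 64 μg/mL, against E. coli J53 carrying plasmid-borne IMP-1. Inoculum adjusted to 0.5 McFarland; plates incubated 18 h at 37° C. MIC taken as lowest concentration giving a clear well.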

[9] = first KP column of Table 3-1, CAMH broth
[10] = second KP column of Table 3-1, CAMH broth

| Compound | Minimum Inhibitory Concentrations, EC (EC (Escherichia coli); Table 3-1, CAMH broth) [microgram/mL] | Minimum Inhibitory Concentrations, KP [2, 9] [microgram/mL] | Minimum Inhibitory Concentrations, KP [2, 10] [microgram/mL] | Minimum Inhibitory Concentrations, KP (ATCC KPC-3) (KP (ATCC KPC-3)) [microgram/mL] | Minimum Inhibitory Concentrations, KP (GJ 5659 TEM-26) (KP (GJ 5659 TEM-26)) [microgram/mL] | Mimimum Inhibitory Concentrations, KP (RR -1) (KP (RR -1)) [microgram/mL] | Minimum Inhibitory Concentrations, KP (URMC-1) (KP (URMC-1)) [microgram/mL] | Minimum Inhibitory Concentrations, KP (URMC-2) (KP (URMC-2)) [microgram/mL] | Minimum Inhibitory Concentrations, KP (URMC-3) (KP (URMC-3)) [microgram/mL] | Minimum Inhibitory Concentrations, KP(GJ 5934 TEM-26) (KP(GJ 5934 TEM-26)) [microgram/mL] | Minimum Inhibitory Concentrations, KP(JMI KPC-2) (KP(JMI KPC-2)) [microgram/mL] | Minimum Inhibitory Concentrations, KP(ATCC TEM-10/TEM-12) (KP(ATCC TEM-10/TEM-12)) [microgram/mL] | Mimimum Inhibitory Concentrations, EA (URMC -3) (EA (URMC -3)) [microgram/mL] | Mimimum Inhibitory Concentrations, J53 Alone (E. coli J53 Alone; Table 4-2) [microgram/mL] | further results |
| --- | --- | --- | --- | --- | --- | --- | --- | --- | --- | --- | --- | --- | --- | --- | --- |
| CC(C)(O/N=C(\C(=O)N[C@@H]1C(=O)N2C(C(=O)O)=C(C=Cc3ccc(C[n+]4ccc5cc(O)c(O)cc5c4)cc3)CS[C@H]12)c1csc(N)n1)C(=O)O (mixture of isomers) [Compound 435, 2-(4-((E/Z)-2-((6R,7R)-7-((Z)-2-(2-aminothiazol-4-yl)-2-(((2-carboxypropan-2-yl)oxy)imino)acetamido)-2-carboxy-8-oxo-5-thia-1-azabicyclo[4.2.0]oct-2-en-3-yl)vinyl)benzyl)-6,7-dihydroxyisoquinolin-2-ium] | ≤0.06 | ≤0.06 | ≤0.06 | >64 | 0.13 | ≤0.06 | ≤0.06 | ≤0.06 | ≤0.06 | <0.06 | 4 | 2 | 0.5 | ≤0.06 | Minimum Inhibitory Concentrations, EC (EC (Escherichia coli); first EC column of Table 3-1, CAMH broth): ≤0.06 microgram/mL; Minimum Inhibitory Concentrations, KOXY [1]: ≤0.06 microgram/mL; Minimum Inhibitory Concentrations, A. baumannii (JMI OXA-58) [3]: >64 microgram/mL; Minimum Inhibitory Concentrations, A. baumannii (A. baumannii; A. baumannii, CAMH broth, 20 μM Apo-Transferrin, 37° C., 18 hours): 1 microgram/mL; MICs for an Acinetobacter baumannii strain, in words (A. baumannii; review of Table 2): low microgram/mL MICs; Mimimum Inhibitory Concentrations, J53 Alone (E. coli J53 Alone; Table 4-1): ≤0.06 microgram/mL; Mimimum Inhibitory Concentrations, DHA-1 [4]: ≤0.06 microgram/mL; Mimimum Inhibitory Concentrations, TEM-26 ([5]; isogenic E. coli strain, TEM-26, CAMH broth, 20 μM Apo-Transferrin, 37° C., 18 hours): ≤0.06 microgram/mL; Mimimum Inhibitory Concentrations, CTX-M-14 ([6]; isogenic E. coli strain, CTX-M-14, CAMH broth, 20 μM Apo-Transferrin, 37° C., 18 hours): ≤0.06 microgram/mL; Mimimum Inhibitory Concentrations, CTX-M-15 ([7]; isogenic E. coli strain, CTX-M-15, CAMH broth, 20 μM Apo-Transferrin, 37° C., 18 hours): ≤0.06 microgram/mL; Mimimum Inhibitory Concentrations, IMP-1 ([8]; isogenic E. coli strain, IMP-1, CAMH broth, 20 μM Apo-Transferrin, 37° C., 18 hours): 0.13 microgram/mL; MICs for an E. coli strain carrying the gene for carbapenemase IMP-1, in words ([8]; review of Tables 4-1 and 4-2): low microgram/mL MICs |
| CC(C)(O/N=C(\C(=O)N[C@@H]1C(=O)N2C(C(=O)O)=C(C=Cc3ccc(C[N+]4(C)CCc5cc(O)c(O)cc5C4)cc3)CS[C@H]12)c1csc(N)n1)C(=O)O (mixture of isomers) [Compound 407, 2-(4-((E/Z)-2-((6R,7R)-7-((Z)-2-(2-aminothiazol-4-yl)-2-(((2-carboxypropan-2-yl)oxy)imino)acetamido)-2-carboxy-8-oxo-5-thia-1-azabicyclo[4.2.0]oct-2-en-3 yl)vinyl)benzyl)-6,7-dihydroxy-2-methyl-1,2,3,4-tetrahydroisoquinolin-2-ium] | 0.25 | 0.25 | 0.25 | 64 | 2 | 0.5 | 0.13 | 0.25 | 0.13 | 2 | 16 | 0.25 | 2 | 0.13 | MIC (EC (Escherichia coli); Escherichia coli, first EC column of Table 3-1, CAMH broth, read-out: Minimum Inhibitory Concentrations, EC): 0.25 µg/mL; MIC ([1]; Klebsiella oxytoca, read-out: Minimum Inhibitory Concentrations, KOXY): 1 µg/mL; MIC ([3]; Acinetobacter baumannii, read-out: Minimum Inhibitory Concentrations, A. baumannii (JMI OXA-58)): 16 µg/mL; MIC (A. baumannii; Acinetobacter baumannii, A. baumannii, CAMH broth, 20 μM Apo-Transferrin, 37° C., 18 hours, read-out: Minimum Inhibitory Concentrations, A. baumannii): 2 µg/mL; MIC (E. coli J53 Alone; Escherichia coli, J53ALONE, 18 h, read-out: Mimimum Inhibitory Concentrations, J53 Alone): 0.13 µg/mL; MIC ([5]; Escherichia coli, 18 h, read-out: Mimimum Inhibitory Concentrations, TEM-26): 1 µg/mL; MIC ([6]; Escherichia coli, 18 h, read-out: Mimimum Inhibitory Concentrations, CTX-M-14): 1 µg/mL; MIC ([7]; Escherichia coli, 18 h, read-out: Mimimum Inhibitory Concentrations, CTX-M-15): 64 µg/mL; MIC ([8]; Escherichia coli, 18 h, read-out: Mimimum Inhibitory Concentrations, IMP-1): 32 µg/mL |
